Data reported in patent US7875621B2, “Substituted 2-alkyl quinazolinone derivatives as PARP inhibitors” (Janssen Pharmaceutica NV, priority 2004, dated 2011).

target: T1, TANK-2 enzyme (Homo sapiens, UniProt Q9H2K2); assay: In vitro scintillation proximity assay (SPA) for TANK-2 inhibitory activity; type: biochemical; conditions: not given
T1 construct: inferred from capture on Ni-coated flash plate; made in house
T1 sequence (Q9H2K2 1-1166): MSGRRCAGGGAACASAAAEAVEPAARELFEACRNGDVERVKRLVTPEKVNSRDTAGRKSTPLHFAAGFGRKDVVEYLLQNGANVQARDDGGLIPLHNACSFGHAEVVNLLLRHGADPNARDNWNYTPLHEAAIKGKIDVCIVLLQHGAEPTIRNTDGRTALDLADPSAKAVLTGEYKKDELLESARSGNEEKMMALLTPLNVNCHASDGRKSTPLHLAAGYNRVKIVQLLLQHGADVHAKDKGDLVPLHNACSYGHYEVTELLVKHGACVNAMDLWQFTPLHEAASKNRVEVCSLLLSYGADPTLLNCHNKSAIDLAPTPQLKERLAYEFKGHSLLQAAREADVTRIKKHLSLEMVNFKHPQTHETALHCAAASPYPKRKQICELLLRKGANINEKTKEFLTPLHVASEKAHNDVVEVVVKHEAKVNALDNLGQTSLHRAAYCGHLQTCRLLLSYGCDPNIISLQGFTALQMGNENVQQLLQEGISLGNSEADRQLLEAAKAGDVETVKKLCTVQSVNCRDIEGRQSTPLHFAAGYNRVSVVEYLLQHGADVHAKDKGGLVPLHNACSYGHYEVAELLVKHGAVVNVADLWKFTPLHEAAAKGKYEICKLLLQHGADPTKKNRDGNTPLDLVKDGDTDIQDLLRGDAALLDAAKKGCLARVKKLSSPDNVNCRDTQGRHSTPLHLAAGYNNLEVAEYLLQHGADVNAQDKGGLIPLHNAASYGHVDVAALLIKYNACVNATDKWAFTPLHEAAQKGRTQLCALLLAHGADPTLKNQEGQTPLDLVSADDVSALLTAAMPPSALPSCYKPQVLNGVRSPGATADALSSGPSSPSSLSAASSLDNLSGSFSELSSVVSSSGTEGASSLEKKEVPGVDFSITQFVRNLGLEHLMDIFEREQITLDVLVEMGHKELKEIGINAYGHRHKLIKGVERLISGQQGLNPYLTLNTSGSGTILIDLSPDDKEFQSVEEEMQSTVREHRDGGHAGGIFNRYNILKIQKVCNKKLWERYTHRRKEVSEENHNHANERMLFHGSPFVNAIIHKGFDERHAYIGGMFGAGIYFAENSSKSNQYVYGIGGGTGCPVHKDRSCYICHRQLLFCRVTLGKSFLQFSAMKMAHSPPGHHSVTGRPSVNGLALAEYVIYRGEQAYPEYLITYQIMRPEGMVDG
Experimental: In Vitro Scintillation Proximity Assay (SPA) for TANK-2 Inhibitory Activity
Compounds of the present invention were tested in an in vitro assay based on SPA technology with Ni Flash plates (96 or 384 well).
In principle, the assay relies upon SPA technology for the detection of auto-poly(ADP-ribosyl)ation of TANK-2 protein using [^3H]-nicotinamide adenine dinucleotide ([^3H]-NAD^+) as ADP-ribosyl donor.
A stock solution of [^3H]-NAD^+/NAD was made by adding 64.6 μl of [^3H]-NAD^+ (0.1 mCi/ml, supplier: Perkin Elmer) and 46.7 μl NAD-stock (10.7 mM, stored at −20° C., supplier Roche) to 1888.7 μl assay buffer (60 mM Tris/HCl, pH 7.4; 0.9 mM DTT; 6 mM MgCl2). The TANK-2 enzyme was produced as described in EP1238063. 60 μl of assay buffer, together with 1 μl of compound in DMSO, 20 μl of [^3H]-NAD^+/NAD and 20 μl of TANK-2 enzyme (final concentration 6 μg/ml) was added per well into a 96-well Ni-coated flash plate (Perkin Elmer). After incubation of the mixture for 120 min. at room temperature, the reaction was terminated by adding 60 μl of stopsolution (42.6 mg NAD in 6 ml H2O). The plates were covered with a plate sealer and placed in a TopCountNXT™ (Packard) for scintillation counting. Values were expressed as counts per minute (cpm). For each experiment, controls (containing TANK-2 enzyme and DMSO without compound), a blank incubation (containing DMSO but no TANK-2 enzyme or compound) and samples (containing TANK-2 enzyme and compound dissolved in DMSO) were run in parallel. All compounds tested were dissolved and eventually further diluted in DMSO. In first instance, compounds were tested at a concentration of 10^−5M. […] In each test, the blank value was subtracted from both the control and the sample values. The control sample represented maximal TANK-2 enzyme activity. For each sample, the amount of cpm was expressed as a percentage of the mean cpm value of the controls. When appropriate, IC50-values (concentration of the drug, needed to reduce the TANK-2 enzyme activity to 50% of the control) were computed using linear interpolation between the experimental points just above and below the 50% level. Herein the effects of test compounds are expressed as pIC50 (the negative log value of the IC50-value). As reference compounds, 3-aminobenzamide and 4-amino-1,8-naphtalimide were included to validate the SPA assay. Herein the assay was described using 96-well plates. In the assay using 384-well plates the same final concentrations were used and volumes were adapted.

| Structure (SMILES) | IC50 |
| --- | --- |
| O=C1NC(CCN2CCC(n3c(=O)[nH]c4ccccc43)CC2)Nc2ccccc21 (stereo not drawn) [Compound 13] | 0.938 µM |

same assay, conditions: auto-poly(ADP-ribosyl)ation, [3H]-NAD+, 96- or 384-well Ni Flash plates; read-out: in vitro SPA TANK-2 pIC50 (converted)

| IC50 | Structure (SMILES) |
| --- | --- |
| 2.48 µM | O=C(CC1CCN(CCc2nc3ccccc3c(=O)[nH]2)CC1)c1ccc(F)cc1 [Compound 3] |
| < 10 µM | O=C1NC(CCCN2CCC(n3c(=O)[nH]c4ccccc43)CC2)Nc2ccccc21 (stereo not drawn) [Compound 7] |
| > 10 µM | O=C(NC1CCN(CCCC2NC(=O)c3ccccc3N2)CC1)c1ccccc1 (stereo not drawn) [Compound 8] |
| > 10 µM | O=C(c1ccc(F)cc1)C1CCN(CCc2nc3ccccc3c(=O)[nH]2)CC1 [Compound 9] |
| > 10 µM | NC(=O)C1(N2CCOCC2)CCN(CCCc2nc3ccccc3c(=O)[nH]2)CC1 [Compound 11] |
| > 10 µM | O=C(NC1CCN(CCCc2nc3ccccc3c(=O)[nH]2)CC1)c1ccccc1 [Compound 12] |
| > 10 µM | O=C(c1ccc(F)cc1)C1CCN(CCCc2nc3ccccc3c(=O)[nH]2)CC1 [Compound 14] |

| Structure (SMILES) | IC50 |
| --- | --- |
| O=C1NCN(c2ccccc2)C12CCN(CCCc1nc3ccccc3c(=O)[nH]1)CC2 [Compound 2] | > 10 µM |
| NC(=O)C1(c2ccccc2)CCN(CCCc2nc3ccccc3c(=O)[nH]2)CC1 [Compound 4] | > 10 µM |
| NC(=O)C1(c2ccccc2)CCN(CCCC2NC(=O)c3ccccc3N2)CC1 (stereo not drawn) [Compound 5] | > 10 µM |
| O=C1NC(CCN2CCC3(CC2)C(=O)NCN3c2ccccc2)Nc2ccccc21 (stereo not drawn) [Compound 6] | 7.43 µM |
